Test results from PubChem BioAssay (NCI).
Several values for one entry are separate records, joined by “and”; a condition that tells them apart may be missing. Equal entries are not always repeated.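 Test compounds were applied to cells in 96-well plates for 48 hours at 5 doses. At the GI50, growth is halved. TGI marks complete inhibition of growth.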

How the values were obtained:
Assay in all cases: inhibition of tumour cell growth, NCI panel, 48 h
786-0 renal = test system: 786-0 renal
A498 renal = test system: A498 renal
A549 NSCLC = test system: A549 NSCLC
ACHN renal = test system: ACHN renal
BT-549 breast = test system: BT-549 breast
CAKI-1 renal = test system: CAKI-1 renal
CCRF-CEM leukemia = test system: CCRF-CEM leukemia
COLO 205 colon = test system: COLO 205 colon
DU-145 prostate = test system: DU-145 prostate
EKVX NSCLC = test system: EKVX NSCLC
HCC-2998 colon = test system: HCC-2998 colon
HCT-116 colon = test system: HCT-116 colon
HCT-15 colon = test system: HCT-15 colon
HL-60(TB) leukemia = test system: HL-60(TB) leukemia
HOP-62 NSCLC = test system: HOP-62 NSCLC
HOP-92 NSCLC = test system: HOP-92 NSCLC
HS 578T breast = test system: HS 578T breast
HT29 colon = test system: HT29 colon
IGROV1 ovarian = test system: IGROV1 ovarian
K-562 leukemia = test system: K-562 leukemia
KM12 colon = test system: KM12 colon
LOX IMVI melanoma = test system: LOX IMVI melanoma
M14 melanoma = test system: M14 melanoma
MALME-3M melanoma = test system: MALME-3M melanoma
MDA-MB-231 breast = test system: MDA-MB-231 breast
MDA-MB-435 = test system: MDA-MB-435
MDA-MB-468 breast = test system: MDA-MB-468 breast
MOLT-4 leukemia = test system: MOLT-4 leukemia
NCI-H226 lung = test system: NCI-H226 lung
NCI-H23 lung = test system: NCI-H23 lung
NCI-H460 lung = test system: NCI-H460 lung
NCI-H522 lung = test system: NCI-H522 lung
NCI/ADR-RES ovarian = test system: NCI/ADR-RES ovarian
OVCAR-3 ovarian = test system: OVCAR-3 ovarian
OVCAR-4 ovarian = test system: OVCAR-4 ovarian
OVCAR-5 ovarian = test system: OVCAR-5 ovarian
PC-3 prostate = test system: PC-3 prostate
RPMI-8226 leukemia = test system: RPMI-8226 leukemia
RXF 393 renal = test system: RXF 393 renal
SF-268 CNS = test system: SF-268 CNS
SF-295 CNS = test system: SF-295 CNS
SF-539 CNS = test system: SF-539 CNS
SK-MEL-2 melanoma = test system: SK-MEL-2 melanoma
SK-MEL-28 melanoma = test system: SK-MEL-28 melanoma
SK-MEL-5 melanoma = test system: SK-MEL-5 melanoma
SK-OV-3 ovarian = test system: SK-OV-3 ovarian
SN12C renal = test system: SN12C renal
SNB-19 CNS = test system: SNB-19 CNS
SNB-75 CNS = test system: SNB-75 CNS
SR leukemia = test system: SR leukemia
SW-620 colon = test system: SW-620 colon
T-47D breast = test system: T-47D breast
TK-10 renal = test system: TK-10 renal
U251 CNS = test system: U251 CNS
UACC-257 melanoma = test system: UACC-257 melanoma
UACC-62 melanoma = test system: UACC-62 melanoma
UO-31 renal = test system: UO-31 renal

CC1=C(CCC=NNC(N)=O)C2=C(C)C3(CC3)[C@@](C)(O)C(=O)C2=C1
GI50 (786-0 renal): 113 nM
TGI (786-0 renal): 428 nM
GI50 (A498 renal): 208 nM
TGI (A498 renal): 511 nM
GI50 (A549 NSCLC): 122 nM
TGI (A549 NSCLC): 2160 nM
GI50 (ACHN renal): 68.7 nM
TGI (ACHN renal): 344 nM
GI50 (BT-549 breast): 60.5 nM
TGI (BT-549 breast): 212 nM
GI50 (CAKI-1 renal): 133 nM
TGI (CAKI-1 renal): 1110 nM
GI50 (CCRF-CEM leukemia): 2360 nM
TGI (CCRF-CEM leukemia): > 35200 nM
GI50 (COLO 205 colon): 152 nM
TGI (COLO 205 colon): 314 nM
GI50 (DU-145 prostate): 34.7 nM
TGI (DU-145 prostate): 1200 nM
GI50 (EKVX NSCLC): 177 nM
TGI (EKVX NSCLC): 526 nM
GI50 (HCC-2998 colon): 94.1 nM
TGI (HCC-2998 colon): 259 nM
GI50 (HCT-116 colon): 142 nM
TGI (HCT-116 colon): 1400 nM
GI50 (HCT-15 colon): 122 nM
TGI (HCT-15 colon): 616 nM
GI50 (HL-60(TB) leukemia): 56.8 nM
GI50 (HOP-62 NSCLC): 74.4 nM
TGI (HOP-62 NSCLC): 802 nM
GI50 (HOP-92 NSCLC): 34.6 nM
TGI (HOP-92 NSCLC): 180 nM
GI50 (HS 578T breast): 249 nM
TGI (HS 578T breast): 1070 nM
GI50 (HT29 colon): 170 nM
TGI (HT29 colon): 740 nM
GI50 (IGROV1 ovarian): 35.6 nM
TGI (IGROV1 ovarian): 161 nM
GI50 (K-562 leukemia): 2320 nM
TGI (K-562 leukemia): > 37900 nM
GI50 (KM12 colon): 506 nM
TGI (KM12 colon): 7670 nM
GI50 (LOX IMVI melanoma): 149 nM
TGI (LOX IMVI melanoma): 410 nM
GI50 (M14 melanoma): 74.5 nM
TGI (M14 melanoma): 253 nM
GI50 (MALME-3M melanoma): 82.2 nM
TGI (MALME-3M melanoma): 218 nM
GI50 (MDA-MB-231 breast): 142 nM
TGI (MDA-MB-231 breast): 435 nM
GI50 (MDA-MB-435): 267 nM
TGI (MDA-MB-435): 941 nM
GI50 (MDA-MB-468 breast): 187 nM and 31.6 nM
TGI (MDA-MB-468 breast): 691 nM and 95.3 nM
GI50 (MOLT-4 leukemia): 1180 nM
TGI (MOLT-4 leukemia): > 41500 nM
GI50 (NCI-H226 lung): 200 nM
TGI (NCI-H226 lung): 646 nM
GI50 (NCI-H23 lung): 17.2 nM
TGI (NCI-H23 lung): 45 nM
GI50 (NCI-H460 lung): 24.3 nM
TGI (NCI-H460 lung): 218 nM
GI50 (NCI-H522 lung): 165 nM
TGI (NCI-H522 lung): 414 nM
GI50 (NCI/ADR-RES ovarian): 104 nM
TGI (NCI/ADR-RES ovarian): 407 nM
GI50 (OVCAR-3 ovarian): 132 nM
TGI (OVCAR-3 ovarian): 828 nM
GI50 (OVCAR-4 ovarian): 172 nM
TGI (OVCAR-4 ovarian): 574 nM
GI50 (OVCAR-5 ovarian): 45.1 nM
TGI (OVCAR-5 ovarian): 364 nM
GI50 (PC-3 prostate): 175 nM
TGI (PC-3 prostate): 1960 nM
GI50 (RPMI-8226 leukemia): 3020 nM
TGI (RPMI-8226 leukemia): > 35200 nM
GI50 (RXF 393 renal): 19.4 nM
TGI (RXF 393 renal): 41.8 nM
GI50 (SF-268 CNS): 34.3 nM
TGI (SF-268 CNS): 423 nM
GI50 (SF-295 CNS): 89.3 nM
TGI (SF-295 CNS): 1210 nM
GI50 (SF-539 CNS): 32 nM
TGI (SF-539 CNS): 128 nM
GI50 (SK-MEL-2 melanoma): 193 nM
TGI (SK-MEL-2 melanoma): 362 nM
GI50 (SK-MEL-28 melanoma): 187 nM
TGI (SK-MEL-28 melanoma): 369 nM
GI50 (SK-MEL-5 melanoma): 94 nM
TGI (SK-MEL-5 melanoma): 248 nM
GI50 (SK-OV-3 ovarian): 42.2 nM
TGI (SK-OV-3 ovarian): 334 nM
GI50 (SN12C renal): 92.3 nM
TGI (SN12C renal): 654 nM
GI50 (SNB-19 CNS): 225 nM
TGI (SNB-19 CNS): 894 nM
GI50 (SNB-75 CNS): 72.5 nM
TGI (SNB-75 CNS): 226 nM
GI50 (SR leukemia): 1820 nM
TGI (SR leukemia): > 100000 nM
GI50 (SW-620 colon): 1440 nM
TGI (SW-620 colon): 3740 nM
GI50 (T-47D breast): 86.2 nM
TGI (T-47D breast): 2740 nM
GI50 (TK-10 renal): 278 nM
TGI (TK-10 renal): 1260 nM
GI50 (U251 CNS): 210 nM
TGI (U251 CNS): 936 nM
GI50 (UACC-257 melanoma): 190 nM
TGI (UACC-257 melanoma): 427 nM
GI50 (UACC-62 melanoma): 142 nM
TGI (UACC-62 melanoma): 292 nM
GI50 (UO-31 renal): 71.2 nM
TGI (UO-31 renal): 277 nM
